From patent publication US9944608B2, “Herbicidal pyridazinone derivatives” (Syngenta Participations AG, priority 2014, dated 2018)

Experiments:
Assay in all cases: B1 Post-emergence efficacy, glasshouse pot test
Format in all cases: in vivo
Settings in all cases: post-emergence application, 1000 g/ha, evaluated after 13 days
[1] = system: Alopecurus myosuroides (ALOMY)
Experimental: (§1) B1 Post-Emergence Efficacy Seeds of a variety of test species are sown in standard soil in pots:—Solanum nigrum (SOLNI), Amaranthus retoflexus (AMARE), Setaria faberi (SETFA), Alopecurus myosuroides (ALOMY), Echinochloa crus-galli (ECHCG), Ipomoea hederacea (IPOHE), Lolium perenne (LOLPE). After 8 days cultivation (post-emergence) under controlled conditions in a glasshouse (at 24/16° C., day/night; 14 hours light; 65% humidity), the plants are sprayed with an aqueous spray solution derived from the formulation of the technical active ingredient in acetone/water (50:50) solution containing 0.5% Tween 20 (polyoxyethelyene sorbitan monolaurate, CAS RN 9005-64-5). Compounds are applied at 1000 g/ha. The test plants are then grown in a glasshouse under controlled conditions in a glasshouse (at 24/16° C., day/night; 14 hours light; 65% humidity) and watered twice daily. After 13 days, the test is evaluated for the percentage damage caused to the plant. The biological activities are assessed on a five point scale (5=80-100%; 4=60-79%; 3=40-59%; 2=20-39%; 1=0-19%). A blank value in the table is indicative that the compound was not tested on that species.

[2] = system: Amaranthus retoflexus (AMARE)
Experimental: as §1

[3] = system: Echinochloa crus-galli (ECHCG)
Experimental: as §1

[4] = system: Ipomoea hederacea (IPOHE)
Experimental: as §1

Setaria faberi (SETFA) = system: Setaria faberi (SETFA)
Experimental: as §1

Solanum nigrum (SOLNI) = system: Solanum nigrum (SOLNI)
Experimental: as §1

Lolium perenne (LOLPE) = system: Lolium perenne (LOLPE)
Experimental: as §1

Row | Compound | ALOMY: percentage damage caused to the plant (five point scale) [1] | AMARE: percentage damage caused to the plant (five point scale) [2] | ECHCG: percentage damage caused to the plant (five point scale) [3] | IPOHE: percentage damage caused to the plant (five point scale) [4] | SETFA: percentage damage caused to the plant (five point scale) (Setaria faberi (SETFA)) | SOLNI: percentage damage caused to the plant (five point scale) (Solanum nigrum (SOLNI)) | LOLPE: percentage damage caused to the plant (five point scale) (Lolium perenne (LOLPE))
1 | CC1=NN(C)C(=O)C(c2c(Cl)ccc(Cl)c2OCc2ccccc2)C1=O (stereo not drawn) [Compound 1.001, 4-(2-benzyloxy-3,6-dichloro-phenyl)-2,6-dimethyl-pyridazine-3,5-dione] | 4 (4=60-79%) | 5 (5=80-100%) | 5 (5=80-100%) | 5 (5=80-100%) | 5 (5=80-100%) | 5 (5=80-100%) | 
2 | Cc1nn(C)c(=O)c(-c2c(C(F)(F)F)ccc(Cl)c2OCc2ccccc2)c1O [Compound 1.073] |  | 3 (3=40-59%) | 5 (5=80-100%) | 5 (5=80-100%) | 5 (5=80-100%) | 5 (5=80-100%) | 3 (3=40-59%)
3 | Cn1nc(C(F)(F)F)c(O)c(-c2c(F)ccc(Cl)c2OCc2ccccc2)c1=O [Compound 1.074] |  | 5 (5=80-100%) | 5 (5=80-100%) | 5 (5=80-100%) | 5 (5=80-100%) | 5 (5=80-100%) | 5 (5=80-100%)
4 | Cn1nc(C(F)(F)F)c(O)c(-c2c(Cl)ccc(Cl)c2OCc2ccccc2)c1=O [Compound 1.075] |  | 4 (4=60-79%) | 5 (5=80-100%) | 5 (5=80-100%) | 5 (5=80-100%) | 5 (5=80-100%) | 4 (4=60-79%)
5 | Cc1ccc(Cl)c(OCc2ccccc2)c1-c1c(O)c(C)nn(C)c1=O [Compound 1.076] |  | 2 (2=20-39%) | 5 (5=80-100%) | 5 (5=80-100%) | 5 (5=80-100%) | 5 (5=80-100%) | 4 (4=60-79%)
6 | C#CCn1nc(C)c(O)c(-c2c(F)ccc(Cl)c2OCc2ccccc2)c1=O [Compound 1.077] |  | 5 (5=80-100%) | 5 (5=80-100%) | 5 (5=80-100%) | 5 (5=80-100%) | 5 (5=80-100%) | 5 (5=80-100%)
7 | Cn1nc(N)c(O)c(-c2c(F)ccc(Cl)c2OCc2ccccc2)c1=O [Compound 1.078] |  | 3 (3=40-59%) | 2 (2=20-39%) | 4 (4=60-79%) | 3 (3=40-59%) | 5 (5=80-100%) | 1 (1=0-19%)
8 | Cn1nc(S(C)(=O)=O)c(O)c(-c2c(F)ccc(Cl)c2OCc2ccccc2)c1=O [Compound 1.079] |  | 1 (1=0-19%) | 1 (1=0-19%) | 5 (5=80-100%) | 1 (1=0-19%) | 5 (5=80-100%) | 1 (1=0-19%)
9 | Cn1nc([S+](C)[O-])c(O)c(-c2c(F)ccc(Cl)c2OCc2ccccc2)c1=O (stereo not drawn) [Compound 1.080] |  | 2 (2=20-39%) | 1 (1=0-19%) | 5 (5=80-100%) | 1 (1=0-19%) | 5 (5=80-100%) | 2 (2=20-39%)
10 | Cn1nc(N)c(O)c(-c2c(Cl)ccc(Cl)c2OCc2ccccc2)c1=O [Compound 1.081] |  | 3 (3=40-59%) | 2 (2=20-39%) | 4 (4=60-79%) | 4 (4=60-79%) | 5 (5=80-100%) | 2 (2=20-39%)
11 | Cn1nc(S(C)(=O)=O)c(O)c(-c2c(Cl)ccc(Cl)c2OCc2ccccc2)c1=O [Compound 1.082] |  | 1 (1=0-19%) | 1 (1=0-19%) | 3 (3=40-59%) | 2 (2=20-39%) | 5 (5=80-100%) | 1 (1=0-19%)
12 | Cn1nc([S+](C)[O-])c(O)c(-c2c(Cl)ccc(Cl)c2OCc2ccccc2)c1=O (stereo not drawn) [Compound 1.083] |  | 1 (1=0-19%) | 1 (1=0-19%) | 5 (5=80-100%) | 3 (3=40-59%) | 5 (5=80-100%) | 2 (2=20-39%)
13 | CSc1nn(C)c(=O)c(-c2c(F)ccc(Cl)c2OCc2ccccc2)c1O [Compound 1.084] |  | 3 (3=40-59%) | 1 (1=0-19%) | 5 (5=80-100%) | 2 (2=20-39%) | 5 (5=80-100%) | 4 (4=60-79%)
14 | CN(C)c1nn(C)c(=O)c(-c2c(F)ccc(Cl)c2OCc2ccccc2)c1O [Compound 1.085] |  | 5 (5=80-100%) | 4 (4=60-79%) | 5 (5=80-100%) | 3 (3=40-59%) | 5 (5=80-100%) | 5 (5=80-100%)
15 | CSc1nn(C)c(=O)c(-c2c(Cl)ccc(Cl)c2OCc2ccccc2)c1O [Compound 1.086] |  | 3 (3=40-59%) | 2 (2=20-39%) | 5 (5=80-100%) | 4 (4=60-79%) | 5 (5=80-100%) | 4 (4=60-79%)
16 | CN(C)c1nn(C)c(=O)c(-c2c(Cl)ccc(Cl)c2OCc2ccccc2)c1O [Compound 1.087] |  | 5 (5=80-100%) | 5 (5=80-100%) | 5 (5=80-100%) | 5 (5=80-100%) | 5 (5=80-100%) | 5 (5=80-100%)
